From patent publication US20240174631A1, “COMPOUNDS, COMPOSITIONS, AND METHODS FOR MODULATING FGF ACTIVITY” (Recovery Therapeutics, Inc., priority 2021, published 2024)

Target: FGFR1 (Homo sapiens, UniProt P11362)
Test: Thermal shift assay (TSA) of FGFR1/FGF2 complex, FGFR1 melting peak
Type: binding
Design: made in house; host or cells: Escherichia coli BL21 (DE3) Star
From the text: TSA was utilized to biophysically characterize the recombinant human FGFR1/FGF2 complex in the presence or absence of compounds. The assay functions by protein denaturation over a temperature gradient. During protein unfolding, exposed hydrophobic regions bind a dye and fluoresce due to solvent relaxation effects. Changes in the melting temperature of the protein complex in the presence of each compound were monitored and compounds were screened/ranked using this method.
Cell pellets were thawed and resuspend in 100 mL of FGFR1 Lysis Buffer per 9 g of pellet (20 mM Tris-HCl pH 8.0, 500 mM NaCl, 1 mM dithiothreitol) by stirring at 4° C. for 1 hour. Cells were lysed in 3 cycles on/off for 3 minutes each at 4° C. via sonication followed by centrifugation for 30 minutes at 16,000 RPM in rotor F20 at 4° C., after which the supernatant was discarded. This process was then repeated twice. The pellets were resuspended in 150 mL FGFR1 solubilization buffer (8 M urea, 20 mM Tris-HCL pH 8.0, 150 mM NaCl, 1 mM dithiothreitol) by stirring for 1 hour at 4° C., and the solution was subjected to centrifugation for 30 minutes at 16,000 RPM in rotor F20 at 4° C. The pellets were discarded, and the supernatant was filtered through a […] polyethersylfone (PES) filter. After filtration, the supernatant was added dropwise to 1 L FGFR1 refolding buffer (20 mM Tris-HCl pH 8.0, 150 mM NaCl, 0.5 M L-arginine, 25 mM MgCl2) using a glass column. Protein was concentrated by tangential flow from 1 L to 100 mL and dialyzed against 1 L of FGFR1 Dialysis Buffer (20 mM Tris-HCl pH 8.0, 150 mM NaCl, 25 mM MgCl2) for 2 hours at 4° C., and the dialysis step was repeated with fresh buffer for an additional 2 hours at 4° C. The material thus obtained was then centrifuged at 4000 RPM in Eppendorf tabletop centrifuge for 5 minutes and loaded onto 2×5 mL heparin columns. The columns were washed extensively (20 CV) using FGFR1 Heparin Buffer A (20 mM Tris-HCl pH 8.0, 150 mM NaCl, 25 mM MgCl2) and then eluted using FGFR1 Heparin Buffer B (20 mM Tris-HCl pH 8.0, 1.5 M NaCl, 25 mM MgCl2). A large peak was recovered that was >95% pure by SDS-PAGE analysis gel (Expected Mw: 25 KDa). The protein was collected and diluted in 20 mM Tris-HCl pH 8.0, 25 mM MgCl2 buffer in order to reach a NaCl concentration of 150 mM. The FGFR1 thus obtained was concentrated and stored at −80° C.
Thawed aliquots of purified FGF2 (1.0 mg/mL) and FGFR1 (1.6 mg/mL) proteins were mixed in a 1:1 molar ratio (64 μM: 64 μM) on ice for 30 min at 4° C. and plated prior to the thermal shift assay (TSA). Complex formation was verified by loading the complexed material on a size exclusion column (superdex 300GL S200) and observing the monodisperse peak corresponding to the FGF2/FGFR1 complex (˜40 kDa). Compounds of the invention were screened in dose response format (0-100 μM) with the FGF2/FGFR1 complex in triplicates. FGF2/FGFR1/compound complexes were mixed in a 1000:1 ratio with Sypro Orange dye (Sigma-Aldrich). The samples were processed using a Bio-Rad CFX C96 Touch quantitative polymerase chain reaction and run using the FRET assay settings with a heating ramp of 0.3° C./s cycling from 4 to 100° C. Data analysis was performed using the Bio-Rad CFX Manager Software (version 3.1, Bio-Rad) and changes in the melting temperature (Tm) of the complex in the presence of each compound were monitored. The results are shown in Tables 2 and 3 below and also in FIG. 1 (for Compound 2).

Chain of FGFR1 (P11362 142-365 limits assumed): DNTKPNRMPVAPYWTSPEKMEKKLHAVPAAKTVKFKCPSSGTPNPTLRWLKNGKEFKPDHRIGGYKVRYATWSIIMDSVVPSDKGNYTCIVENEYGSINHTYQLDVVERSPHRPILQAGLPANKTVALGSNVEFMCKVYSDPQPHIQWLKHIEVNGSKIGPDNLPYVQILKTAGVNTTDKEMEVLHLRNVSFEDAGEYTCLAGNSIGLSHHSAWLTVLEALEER
Chain of FGFR1 (P09038 156-288 partner limits assumed): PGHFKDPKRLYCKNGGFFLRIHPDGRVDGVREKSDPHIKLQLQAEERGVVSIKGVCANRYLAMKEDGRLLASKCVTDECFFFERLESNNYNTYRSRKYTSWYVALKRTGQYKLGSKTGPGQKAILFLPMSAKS

For `CCN(CC)c1ccc2c(c1)CCN(C1CCN(C(c3ccccc3)c3ccccc3)CC1)C2` [Compound 2, 2-(1-benzhydrylpiperidin-4-yl)-N,N-diethyl-1,2,3,4-tetrahydroisoquinolin-6-amine], which ΔTm at 2 µM (2 μM compound, FGF2/FGFR1 complex) is on record?
Its ΔTm at 2 µM is 4 °C.

What about the ΔTm at 10 µM (10 μM compound, FGF2/FGFR1 complex) of the same compound?
The ΔTm at 10 µM was 4.5 °C.

What about the “shift of the melting curve of the FGF-2/FGFR1 complex (TSA)” value (10 μM, purified FGF-2/FGFR1 complex, FIG. 1) of the same compound?
The value was “increased stability of the complex”.
